What was measured:
[1] = tested on: APP/PS1 mice; experiment: Hippocampal APP, C-terminal fragments, Aβ monomers and SDS-resistant Aβ assemblies after in vivo treatment (western blot, ELISA); set-up: species or system mouse; conditions: after VO-OHpic treatment, end of last behavioural test
Experimental: Hippocampal slices overexpressing Aβ were maintained for 3 days after virus injection with or without the PTEN inhibitor VO-OHpic, before culture medium was collected for measurements. Aβ40 and Aβ42 level were determined in solubilized hippocampal fractions, cultured hippocampal slices or conditioned media by ELISA according to the manufacturer's instructions (WAKO/Invitrogen) that specifically detect the C-terminus of Aβ40 and Aβ42, respectively.
Hippocampi from APP/PS1 mice or their wild-type littermates and organotypic hippocampal slices infected with APPswe/lnd-EGFP/APPwt-EGFP/APPMV-EGFP were solubilized, and extracts were prepared for western blot analysis. Mouse brains or brain sections were homogenized on ice in RIPA buffer (1% TRITON X-100, 1% sodium deoxycholate, 0.1% SDS, 150 mM NaCl, 50 mM Tris-HCl, pH 7.2), using an ULTRATURRAX T25 (Janke & Kunkel). Samples were centrifuged at 15,000×g, and supernatants were used for protein determination. APPsα was detected in conditioned media of the respective slices using antibody 6E10 that selectively detects human APPsα. Levels of APP, CTFα and CTFβ were detected in lysates of the infected slices using APPCt antibody.
After the end of the last test, the levels of APP and its C-terminal fragments (western blot), Aβ monomers (ELISA), and SDS-resistant. Aβ assemblies (SDS-PAE) were measured from the hippocampus of each mouse. […]

[2] = tested on: APPswe/lnd-expressing neurons; experiment: Paired whole-cell recording of AMPAR-mediated EPSCs in APPswe/lnd-expressing CA1 neurons of organotypic hippocampal slices; assay type: cell-based, rat; conditions: 15 nM bPV(HOpic) or 50 nM VO-OHpic during expression
Experimental: The effect of recombinant protein expression on synaptic transmission was evaluated by simultaneous double whole-cell recordings from pairs of nearby infected and uninfected CA1 neurons, under voltage clamp, while stimulating presynaptic Schaffer collateral fibers (under this configuration, recombinant proteins are expressed exclusively in the postsynaptic neuron).
The different versions of APP (APPwt, APPswe/lnd APPMV) and EGFP were co-expressed using an internal ribosomal entry site (IRES) construct. The EGFP-tagged versions of PTEN have been described (Jurado, et al. (2010) EMBO J. 29:2827-2840). All constructs were prepared in pSinRep5 for expression using Sindbis virus. Recombinant proteins were expressed in hippocampal CA1 pyramidal neurons from organotypic slice cultures. Organotypic hippocampal slices were prepared from postnatal day 5-7 rats and cultured during 6-8 days.
The external solution (aCSF) contained 119 mM NaCl, 2.5 mM KCl, 1 mM NaH2PO4, 11 mM glucose, 26 mM NaHCO3, 4 mM MgCl2, 4 mM CaCl2, 100 μM picrotoxin and 2 μM 2-chloroadenosine, pH 7.4, and was gassed with 95% O2 and 5% CO2. […] Bipolar stimulating electrodes were placed over Schaffer collateral fibers between 250 and 300 μm from the CA1 recorded cells, and synaptic responses were evoked with single voltage pulses (200 μs, up to 30 V). […]

O=C(O)c1ncccc1O.O=C(O)c1ncccc1O.[O]=[V][O-] [VO-OHpic]
levels of APP and its C-terminal fragments, Aβ monomers and SDS-resistant Aβ assemblies in hippocampus [1]: No changes were detected
AMPAR-mediated EPSCs in APPswe/lnd-expressing neurons relative to uninfected cells [2]: no longer depressed

Reference: US20170165317A1, “METHOD FOR MITIGATING OR ALLEVIATING SYNAPTIC AND COGNITIVE DEFICITS” (Trustees of Dartmouth College, priority 2013, published 2017)
